How the values were obtained:
human CB1 receptor = molecular target: T1, human CB1 receptor (Homo sapiens, UniProt P21554); experiment: competitive radioligand binding assay, displacement of [3H]CP55,940, CB1; details: for IC50: displacement of specific [3H]-CP55940 binding in HEK 293 cells stably transfected with human CB1 receptor
T1 construct: expressed in transfected cells; membrane-enriched fractions
Description: (§1) In addition, the affinity of test compounds of this invention toward CB1 and CB2 receptors was determined by competitive radioligand binding assays in vitro. This method differentiates the binding strength between compounds by their abilities in displacing a receptor-specific radioactive ligand. […] The readings of the radioactivity retained allow further analysis of receptor binding, and assist in predictions of the pharmacological activities of the test compounds.
(§2) In the assays, CB1 receptors are from human CB1 stably expressed cell lines, and CB2 receptors are from human CB2 stably expressed cell lines. For purification of membrane-enriched fractions, cells were scraped off from the culture dishes in ice-cold buffer A (50 mM Tris, 5 mM MgCl2, 2.5 mM EDTA, pH 7.4, 10% sucrose) with 1 mM PMSF. After sonication, the membrane-enriched fractions were centrifuged for 15 minutes at 2,000×g at 4° C. The supernatant was centrifuged again for 30 minutes at 43,000×g at 4° C. The final pellet was re-suspended in buffer A and stored at −80° C. The protein concentration of the purified membrane was determined by the Bradford method as described by the manual provided by Bio-Rad Laboratories, Inc., Hercules, Calif.
(§3) During the receptor binding experiments, 0.2˜8 μg of membrane fractions were incubated with 0.75 nM [^3H]CP55,940 and a test compound in the incubation buffer of 50 mM Tris-HCl, 5 mM MgCl2, 1 mM EDTA, 0.3% BSA, pH 7.4. The non-specific binding was determined by using 1 μM of CP55,940. The mixture was incubated for 1.5 hours at 30° C. in Multiscreen microplates (Millipore, Billerica, Mass.). At the completion of the incubation, the reaction was terminated by Manifold filtration and washed with ice-cold wash buffer (50 mM Tris, pH 7.4, 0.25% BSA) four times. The radioactivity bound to the filters was measured by Topcount (Perkin Elmer Inc.).

human CB2 receptor = molecular target: T2, human CB2 receptor (Homo sapiens, UniProt P34972); experiment: competitive radioligand binding assay, displacement of [3H]CP55,940, CB2
T2 construct: expressed in transfected cells; membrane-enriched fractions
T2 sequence (P34972 whole entry): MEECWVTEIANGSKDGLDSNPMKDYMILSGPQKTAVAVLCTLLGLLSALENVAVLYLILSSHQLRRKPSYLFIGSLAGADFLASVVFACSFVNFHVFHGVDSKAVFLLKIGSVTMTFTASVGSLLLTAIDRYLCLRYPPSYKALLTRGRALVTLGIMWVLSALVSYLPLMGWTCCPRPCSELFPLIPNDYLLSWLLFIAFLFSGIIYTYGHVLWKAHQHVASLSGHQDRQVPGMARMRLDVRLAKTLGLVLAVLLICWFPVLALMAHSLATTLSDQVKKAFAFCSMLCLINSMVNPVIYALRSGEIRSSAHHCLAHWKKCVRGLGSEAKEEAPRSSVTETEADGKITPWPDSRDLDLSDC
Description: as §1, §2, §3

[1] = Table 2, percent inhibition at 10 μM

T1 sequence (P21554 whole entry): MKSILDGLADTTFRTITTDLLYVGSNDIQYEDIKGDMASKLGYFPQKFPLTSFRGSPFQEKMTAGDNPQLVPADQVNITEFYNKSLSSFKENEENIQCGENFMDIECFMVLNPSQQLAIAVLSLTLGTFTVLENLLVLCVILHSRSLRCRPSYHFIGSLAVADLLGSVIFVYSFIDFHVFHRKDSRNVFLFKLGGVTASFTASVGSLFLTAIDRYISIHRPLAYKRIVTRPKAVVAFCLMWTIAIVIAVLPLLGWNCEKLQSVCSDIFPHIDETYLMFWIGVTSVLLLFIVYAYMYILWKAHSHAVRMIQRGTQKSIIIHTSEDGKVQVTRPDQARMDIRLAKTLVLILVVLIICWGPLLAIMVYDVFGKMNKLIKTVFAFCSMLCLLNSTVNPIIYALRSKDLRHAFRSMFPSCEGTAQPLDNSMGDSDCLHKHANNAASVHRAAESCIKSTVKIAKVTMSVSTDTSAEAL

Row | SMILES | inhibition at 10 µM (human CB1 receptor; [1]) | IC50 (human CB1 receptor) | IC50 (human CB2 receptor; cells printed in μM) | IC50 (human CB2 receptor; human CB2 stably expressed cell line membranes) | CB1 Inhibition (%) (10 μM) (human CB1 receptor; Table 2, percent inhibition at 10 μM, 10 µM)
1 | CCCCOC(=O)Cn1nc(-c2ccc(Cl)cc2Cl)c(-c2ccc(Cl)cc2Cl)n1 [Compound 111] | 90.3% | 1170 ± 263 nM | > 10 µM | – | –
2 | O=C(Cn1nc(-c2ccc(Cl)cc2Cl)c(-c2ccc(Cl)cc2Cl)n1)NC1CCCCC1 [Compound 119] | 74.2% | – | – | – | –
3 | O=C(Cn1nc(-c2ccc(Cl)cc2Cl)c(-c2ccc(Cl)cc2Cl)n1)N1CCCCC1 [Compound 120] | 93.7% | – | – | 5.9 ± 0.764 µM | –
4 | O=C(Cn1nc(-c2ccc(Cl)cc2Cl)c(-c2ccc(Cl)cc2Cl)n1)NN1CCCCC1 [Compound 121] | 70.3% | – | – | – | –
5 | O=C(Cn1nc(-c2ccc(Cl)cc2Cl)c(-c2ccc(Cl)cc2Cl)n1)NCc1ccccc1 [Compound 122] | 99.3% | 66.9 ± 8.9 nM | > 10 µM | – | –
6 | O=C(Cn1nc(-c2ccccc2)c(-c2ccccc2)n1)NC1CCCCC1 [Compound 123] | 11.6% | – | – | – | –
7 | O=C(Cn1nc(-c2ccc(Cl)cc2Cl)c(-c2ccc(Cl)cc2Cl)n1)Oc1ccccc1 [Compound 124] | 14.3% | – | – | – | –
8 | O=C(Cn1nc(-c2ccc(Cl)cc2Cl)c(-c2ccc(Cl)cc2Cl)n1)NC1CCCCC1 [Compound 125] | – | 144 ± 110 nM | > 10 µM | – | 91.40%
9 | C#CC1(NC(=O)Cn2nc(-c3ccc(Cl)cc3Cl)c(-c3ccc(Cl)cc3Cl)n2)CCCCC1 [Compound 126] | 102% | 86.8 ± 1 nM | – | – | –
10 | O=C(Cn1nc(-c2ccc(Cl)cc2Cl)c(-c2ccc(Cl)cc2Cl)n1)N[C@H]1c2ccccc2C[C@H]1O [Compound 127] | 89.4% | 1240 ± 697 nM | – | – | –
11 | O=C(Cn1nc(-c2ccc(Cl)cc2Cl)c(-c2ccc(Cl)cc2Cl)n1)N[C@H]1c2ccccc2C[C@H]1OC(=O)Cn1nc(-c2ccc(Cl)cc2Cl)c(-c2ccc(Cl)cc2Cl)n1 [Compound 128] | 13.6% | – | – | – | –
12 | O=C(Cn1nc(-c2ccc(Cl)cc2)c(-c2ccc(Cl)cc2Cl)n1)N1CCCCC1 [Compound 129] | 76.5% | 587 ± 139 nM | – | – | –
13 | O=C(Cn1nc(-c2ccc(Cl)cc2)c(-c2ccc(Cl)cc2)n1)N1CCCCC1 [Compound 130] | 48.6% | – | – | – | –
14 | O=C(Cn1nc(-c2ccc(Cl)cc2Cl)c(-c2ccc(Cl)cc2Cl)n1)N1CCOCC1 [Compound 131] | 84.2% | 71.9 ± 16.5 nM | – | – | –
15 | O=C(Cn1nc(-c2ccc(Cl)cc2Cl)c(-c2ccc(Cl)cc2Cl)n1)N[C@H](CO)Cc1ccccc1 [Compound 132] | 88.2% | 295 ± 112 nM | – | – | –
16 | C[C@H](NC(=O)Cn1nc(-c2ccc(Cl)cc2Cl)c(-c2ccc(Cl)cc2Cl)n1)C(O)(c1ccccc1)c1ccccc1 [Compound 133] | 75.7% | 760 ± 273 nM | – | – | –
17 | COC[C@H](NC(=O)Cn1nc(-c2ccc(Cl)cc2Cl)c(-c2ccc(Cl)cc2Cl)n1)[C@@H](O)c1ccccc1 [Compound 134] | 95.9% | 806 ± 346 nM | – | – | –
18 | O=C(Cn1nc(-c2ccc(Cl)cc2Cl)c(-c2ccc(Cl)cc2Cl)n1)N[C@@H](CO)[C@H](O)c1ccc([N+](=O)[O-])cc1 [Compound 135] | 60.1% | – | – | – | –
19 | CSc1ccc([C@@H](O)[C@@H](CO)NC(=O)Cn2nc(-c3ccc(Cl)cc3Cl)c(-c3ccc(Cl)cc3Cl)n2)cc1 [Compound 136] | 66.3% | – | – | – | –
20 | O=C(Cn1nc(-c2ccc(Cl)cc2Cl)c(-c2ccc(Cl)cc2Cl)n1)N[C@@H](CO)[C@H](O)c1ccccc1 [Compound 137] | 59.3% | – | – | – | –
21 | O=C(Cn1nc(-c2ccc(Cl)cc2)c(-c2ccc(Cl)cc2Cl)n1)NC1CCCCC1 [Compound 138] | – | 1700 ± 425 nM | – | – | –
22 | COC[C@H](NC(=O)Cn1nc(-c2ccc(Cl)cc2)c(-c2ccc(Cl)cc2Cl)n1)[C@@H](O)c1ccccc1 [Compound 140] | – | 1050 ± 256 nM | – | – | –
23 | O=C(Cn1nc(-c2ccc(Cl)cc2)c(-c2ccc(Cl)cc2Cl)n1)NN1CCCCC1 [Compound 142] | 76.1% | 1850 ± 1380 nM | – | – | –

Row | SMILES | inhibition at 10 µM (human CB1 receptor; [1]) | IC50 (human CB1 receptor) | IC50 (human CB2 receptor; cells printed in μM) | IC50 (human CB2 receptor; human CB2 stably expressed cell line membranes) | CB1 Inhibition (%) (10 μM) (human CB1 receptor; Table 2, percent inhibition at 10 μM, 10 µM)
24 | C[C@H](NC(=O)Cn1nc(-c2ccc(Cl)cc2)c(-c2ccc(Cl)cc2Cl)n1)C(O)(c1ccccc1)c1ccccc1 [Compound 143] | 80% | 789 ± 202 nM | – | – | –
25 | CC(C)[C@H](NC(=O)Cn1nc(-c2ccc(Cl)cc2)c(-c2ccc(Cl)cc2Cl)n1)C(O)(c1ccccc1)c1ccccc1 [Compound 144] | 89.5% | 140 ± 63.1 nM | – | – | –
26 | Cc1ccc(CNC(=O)Cn2nc(-c3ccc(Cl)cc3Cl)c(-c3ccc(Cl)cc3Cl)n2)cc1 [Compound 145] | 95% | 252 ± 75.1 nM | – | – | –
27 | COc1ccc(CNC(=O)Cn2nc(-c3ccc(Cl)cc3Cl)c(-c3ccc(Cl)cc3Cl)n2)cc1 [Compound 146] | 94.8% | 81.9 ± 44.2 nM | > 10 µM | – | –
28 | O=C(Cn1nc(-c2ccc(Cl)cc2Cl)c(-c2ccc(Cl)cc2Cl)n1)Nc1ccccc1 [Compound 147] | 99.5% | 251 ± 88.1 nM | > 10 µM | – | –
29 | Cc1ccccc1CNC(=O)Cn1nc(-c2ccc(Cl)cc2)c(-c2ccc(Cl)cc2Cl)n1 [Compound 148] | 94.5% | 592 ± 302 nM | – | – | –
30 | COc1ccc(CNC(=O)Cn2nc(-c3ccc(Cl)cc3)c(-c3ccc(Cl)cc3Cl)n2)cc1 [Compound 149] | 78.2% | 684 ± 428 nM | – | – | –
31 | O=C(Cn1nc(-c2ccc(Cl)cc2)c(-c2ccc(Cl)cc2Cl)n1)NCc1ccc(Cl)cc1 [Compound 150] | 91.4% | 704 ± 283 nM | – | – | –
32 | O=C(Cn1nc(-c2ccc(Cl)cc2)c(-c2ccc(Cl)cc2Cl)n1)NCc1cccc2c1OCO2 [Compound 151] | 61.8% | 5970 ± 2600 nM | – | – | –
33 | O=C(Cn1nc(-c2ccc(Cl)cc2)c(-c2ccc(Cl)cc2Cl)n1)NCc1ccc(Cl)cc1Cl [Compound 152] | 90.5% | 711 ± 175 nM | – | – | –
34 | O=C(Cn1nc(-c2ccc(Cl)cc2)c(-c2ccc(Cl)cc2Cl)n1)NCc1ccc(Cl)c(Cl)c1 [Compound 153] | 87% | 1060 ± 656 nM | – | – | –
35 | CC(NC(=O)Cn1nc(-c2ccc(Cl)cc2)c(-c2ccc(Cl)cc2Cl)n1)c1ccccc1 (stereo not shown) [Compound 154] | 95.2% | 772 ± 446 nM | – | – | –
36 | Cc1cccc(CNC(=O)Cn2nc(-c3ccc(Cl)cc3)c(-c3ccc(Cl)cc3Cl)n2)c1 [Compound 155] | 85% | 473 ± 300 nM | – | – | –
37 | COc1cccc(CNC(=O)Cn2nc(-c3ccc(Cl)cc3)c(-c3ccc(Cl)cc3Cl)n2)c1 [Compound 156] | 69.5% | – | – | – | –
38 | O=C(Cn1nc(-c2ccc(Cl)cc2)c(-c2ccc(Cl)cc2Cl)n1)NCc1ccc(F)cc1F [Compound 157] | 95.2% | 217 ± 86.6 nM | – | – | –
39 | O=C(Cn1nc(-c2ccc(Cl)cc2)c(-c2ccc(Cl)cc2Cl)n1)NCc1ccccc1C(F)(F)F [Compound 158] | 92.5% | 302 ± 132 nM | – | – | –
40 | O=C(Cn1nc(-c2ccc(Cl)cc2)c(-c2ccc(Cl)cc2Cl)n1)NCc1ccccc1Cl [Compound 159] | 87.3% | 365 ± 160 nM | – | – | –
41 | O=C(Cn1nc(-c2ccc(Cl)cc2)c(-c2ccc(Cl)cc2Cl)n1)NCc1cccc(F)c1 [Compound 161] | 87.7% | 529 ± 144 nM | – | – | –
42 | O=C(Cn1nc(-c2ccc(Cl)cc2)c(-c2ccc(Cl)cc2Cl)n1)NC1CCc2ccccc21 (stereo not shown) [Compound 163] | 76.6% | 2070 ± 186 nM | – | – | –
43 | COc1ccc(CNC(=O)Cn2nc(-c3ccc(Cl)cc3)c(-c3ccc(Cl)cc3Cl)n2)cc1OC [Compound 164] | 82.1% | 2830 ± 378 nM | – | – | –
44 | O=C(Cn1nc(-c2ccc(Cl)cc2)c(-c2ccc(Cl)cc2Cl)n1)NCc1ccc(F)c(F)c1 [Compound 166] | 88.3% | – | – | – | –
45 | CC1CCC(NC(=O)Cn2nc(-c3ccc(Cl)cc3)c(-c3ccc(Cl)cc3Cl)n2)CC1 (stereo not shown) [Compound 167] | 92.1% | – | – | – | –
46 | O=C(Cn1nc(-c2ccc(Cl)cc2Cl)c(-c2ccc(Cl)cc2Cl)n1)NCc1ccccc1F [Compound 173] | – | 19.3 ± 3.5 nM | – | – | –

— patent US8293773B2, “1, 2, 3-triazole derivatives as new cannabinoid-1 receptor antagonists” (National Tsing Hua University, priority 2008, dated 2012)
